Results from ChEMBL document CHEMBL1137033, “Novel bisbenzamidines as potential drug candidates for the treatment of Pneumocystis carinii pneumonia” (Bioorg Med Chem Lett, 2004).

What was measured:
Pneumocystis carinii = assay: inhibitory concentration against Pneumocystis carinii; assay type: functional, organism-based
A549 = assay: Cytotoxicity against A549 cell line; assay type: functional, cell-based; conditions: Homo sapiens

| Structure (SMILES) | IC50 (Pneumocystis carinii) | IC50 (A549) |
| --- | --- | --- |
| N=C(N)c1ccc(COc2ccccc2OCc2ccc(C(=N)N)cc2)cc1 | 1.3 µM | 44.1 µM |
| N=C(N)c1ccc(OCCCCCOc2ccc(C(=N)N)cc2)cc1 [PENTAMIDINE] | 0.5 µM | 24 µM |
| N=C(N)c1ccc(OC(=O)c2ccc(C(=O)Oc3ccc(C(=N)N)cc3)cc2)cc1 [BIS(4-CARBAMIMIDOYLPHENYL)TEREPHTHALATE] | 13.4 µM | 121 µM |

The next lines start with results.

| IC50 (Pneumocystis carinii) | Structure (SMILES) | IC50 (A549) |
| --- | --- | --- |
| 1.3 µM | N=C(N)c1ccc(OCc2ccc(COc3ccc(C(=N)N)cc3)cc2)cc1 | 30.2 µM |
| 0.002 µM | N=C(N)c1ccc(NC(=O)CCCCC(=O)Nc2ccc(C(=N)N)cc2)cc1 | > 0.2 µM |
| 1.4 µM | N=C(N)c1ccc(OCc2ccccc2COc2ccc(C(=N)N)cc2)cc1 | 33.1 µM |
| 0.003 µM | N=C(N)c1ccc(NC(=O)CCCC(=O)Nc2ccc(C(=N)N)cc2)cc1 | > 0.3 µM |
